Our source for the IC50 values is ChEMBL document CHEMBL1153969, “N-Hydroxy-(4-oxime)-cinnamide: a versatile scaffold for the synthesis of novel histone deacetylase [correction of deacetilase] (HDAC) inhibitors” (Bioorg Med Chem Lett, 2009).

Structures are written as SMILES.

As usually defined, the IC50 is the concentration that gives 50% inhibition.

Assay [1] deals with T1, Histone deacetylase 11 (Homo sapiens, UniProt Q96DB2).
T1 sequence (Q96DB2 whole entry): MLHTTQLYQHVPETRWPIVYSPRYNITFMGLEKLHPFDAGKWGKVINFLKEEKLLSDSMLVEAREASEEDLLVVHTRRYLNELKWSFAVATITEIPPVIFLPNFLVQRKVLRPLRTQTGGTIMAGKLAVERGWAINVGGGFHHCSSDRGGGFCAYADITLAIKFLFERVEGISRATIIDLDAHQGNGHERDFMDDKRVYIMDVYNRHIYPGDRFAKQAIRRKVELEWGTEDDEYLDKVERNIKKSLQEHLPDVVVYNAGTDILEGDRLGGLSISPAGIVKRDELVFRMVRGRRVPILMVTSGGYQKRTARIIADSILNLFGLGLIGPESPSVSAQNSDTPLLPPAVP
As to the kind of experiment: Inhibition of human HDAC11.

In assay [2] the target is Histone deacetylase 4 (Homo sapiens, UniProt P56524).
Description: Inhibition of human HDAC4
Assay [3] concerns NB-4. Kind of assay: Cytotoxicity against human NB4 cells after 48 hrs by SRB assay. Format: functional, cell-based. To be noted: NB-4, 48 h. (In general: The SRB assay estimates cell density from bound dye.)
Assay [4] addresses Histone deacetylase 5 (Homo sapiens, UniProt Q9UQL6). Kind of assay: Inhibition of human HDAC5.
The target in assay [5] is T2, Histone deacetylase 8 (Homo sapiens, UniProt Q9BY41).
T2 sequence (Q9BY41 whole entry): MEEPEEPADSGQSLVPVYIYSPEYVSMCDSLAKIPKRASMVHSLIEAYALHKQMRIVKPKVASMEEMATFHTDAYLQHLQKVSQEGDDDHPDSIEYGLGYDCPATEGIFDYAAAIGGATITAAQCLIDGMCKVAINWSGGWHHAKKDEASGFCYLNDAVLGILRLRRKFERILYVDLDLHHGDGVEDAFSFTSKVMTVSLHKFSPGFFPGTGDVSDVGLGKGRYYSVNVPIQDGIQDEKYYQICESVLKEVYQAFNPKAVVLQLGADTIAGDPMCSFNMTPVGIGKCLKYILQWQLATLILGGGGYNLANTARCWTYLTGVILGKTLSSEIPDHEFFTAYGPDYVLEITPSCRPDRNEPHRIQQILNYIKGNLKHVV
Kind of assay: Inhibition of human HDAC8.

Assay [6] concerns HCT-116. Kind of assay: Cytotoxicity against human HCT116 cells after 48 hrs by SRB assay. Format: functional, cell-based. To be noted: HCT-116, 48 h.
The target in assay [7] is Histone deacetylase 2 (Homo sapiens, UniProt Q92769). As to the kind of experiment: Inhibition of human HDAC2.
In assay [8] the target is Histone deacetylase 3 (Homo sapiens, UniProt O15379). Kind of assay: Inhibition of human HDAC3.
Histone deacetylase 3, sequence (O15379 whole entry): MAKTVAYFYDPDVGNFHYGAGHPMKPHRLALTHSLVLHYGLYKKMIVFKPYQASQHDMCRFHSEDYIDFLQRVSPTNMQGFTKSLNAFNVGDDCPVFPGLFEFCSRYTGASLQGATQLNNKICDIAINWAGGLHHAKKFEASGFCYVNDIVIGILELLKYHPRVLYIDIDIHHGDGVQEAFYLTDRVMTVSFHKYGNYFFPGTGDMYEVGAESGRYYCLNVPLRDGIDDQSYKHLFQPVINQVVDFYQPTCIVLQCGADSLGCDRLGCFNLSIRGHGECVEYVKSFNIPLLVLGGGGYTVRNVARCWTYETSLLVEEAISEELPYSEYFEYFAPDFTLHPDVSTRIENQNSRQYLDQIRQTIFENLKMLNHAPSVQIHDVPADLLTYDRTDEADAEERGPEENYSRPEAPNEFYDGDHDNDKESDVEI

Histone deacetylase 5, sequence (Q9UQL6 whole entry): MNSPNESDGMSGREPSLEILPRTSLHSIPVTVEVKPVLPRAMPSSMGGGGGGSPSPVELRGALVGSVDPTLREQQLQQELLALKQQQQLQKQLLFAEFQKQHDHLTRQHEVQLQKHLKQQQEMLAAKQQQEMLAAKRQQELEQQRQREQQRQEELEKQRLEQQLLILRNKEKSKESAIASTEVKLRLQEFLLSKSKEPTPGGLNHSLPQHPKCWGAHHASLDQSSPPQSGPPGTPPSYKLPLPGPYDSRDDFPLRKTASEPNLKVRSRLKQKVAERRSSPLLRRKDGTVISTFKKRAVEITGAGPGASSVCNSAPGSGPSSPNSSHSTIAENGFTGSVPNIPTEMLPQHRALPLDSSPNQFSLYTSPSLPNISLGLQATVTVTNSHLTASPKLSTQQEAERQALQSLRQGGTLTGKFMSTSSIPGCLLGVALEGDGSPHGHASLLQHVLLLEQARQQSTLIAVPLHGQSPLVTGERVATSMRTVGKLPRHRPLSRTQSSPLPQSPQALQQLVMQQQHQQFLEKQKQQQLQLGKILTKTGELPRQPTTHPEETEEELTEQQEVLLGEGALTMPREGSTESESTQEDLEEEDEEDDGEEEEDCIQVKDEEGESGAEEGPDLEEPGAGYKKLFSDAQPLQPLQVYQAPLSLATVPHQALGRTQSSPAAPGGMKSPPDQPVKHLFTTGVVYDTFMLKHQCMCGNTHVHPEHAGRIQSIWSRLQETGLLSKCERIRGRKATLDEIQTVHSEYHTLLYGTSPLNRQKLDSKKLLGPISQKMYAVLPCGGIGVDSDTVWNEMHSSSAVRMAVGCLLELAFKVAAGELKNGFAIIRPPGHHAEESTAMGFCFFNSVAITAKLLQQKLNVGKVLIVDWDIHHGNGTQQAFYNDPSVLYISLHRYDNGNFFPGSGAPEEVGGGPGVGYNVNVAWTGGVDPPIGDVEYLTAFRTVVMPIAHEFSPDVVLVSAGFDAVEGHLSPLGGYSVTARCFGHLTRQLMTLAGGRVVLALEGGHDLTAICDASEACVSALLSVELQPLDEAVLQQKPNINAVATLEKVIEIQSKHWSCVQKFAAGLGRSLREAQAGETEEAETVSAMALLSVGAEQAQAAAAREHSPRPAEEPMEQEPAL
Histone deacetylase 2, sequence (Q92769 whole entry): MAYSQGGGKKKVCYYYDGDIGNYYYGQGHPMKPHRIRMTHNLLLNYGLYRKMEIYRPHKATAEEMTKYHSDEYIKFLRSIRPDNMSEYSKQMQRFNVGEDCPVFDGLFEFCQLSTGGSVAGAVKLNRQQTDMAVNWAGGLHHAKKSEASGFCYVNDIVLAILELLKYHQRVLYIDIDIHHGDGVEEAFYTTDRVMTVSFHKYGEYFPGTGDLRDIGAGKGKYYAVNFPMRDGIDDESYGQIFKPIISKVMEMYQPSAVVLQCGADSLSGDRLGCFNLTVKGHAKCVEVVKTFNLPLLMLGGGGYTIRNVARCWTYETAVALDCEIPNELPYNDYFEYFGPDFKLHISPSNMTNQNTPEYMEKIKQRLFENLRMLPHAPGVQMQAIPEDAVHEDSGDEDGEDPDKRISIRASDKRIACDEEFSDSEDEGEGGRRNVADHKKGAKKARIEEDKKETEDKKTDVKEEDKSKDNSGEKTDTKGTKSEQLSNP
Histone deacetylase 4, sequence (P56524 whole entry): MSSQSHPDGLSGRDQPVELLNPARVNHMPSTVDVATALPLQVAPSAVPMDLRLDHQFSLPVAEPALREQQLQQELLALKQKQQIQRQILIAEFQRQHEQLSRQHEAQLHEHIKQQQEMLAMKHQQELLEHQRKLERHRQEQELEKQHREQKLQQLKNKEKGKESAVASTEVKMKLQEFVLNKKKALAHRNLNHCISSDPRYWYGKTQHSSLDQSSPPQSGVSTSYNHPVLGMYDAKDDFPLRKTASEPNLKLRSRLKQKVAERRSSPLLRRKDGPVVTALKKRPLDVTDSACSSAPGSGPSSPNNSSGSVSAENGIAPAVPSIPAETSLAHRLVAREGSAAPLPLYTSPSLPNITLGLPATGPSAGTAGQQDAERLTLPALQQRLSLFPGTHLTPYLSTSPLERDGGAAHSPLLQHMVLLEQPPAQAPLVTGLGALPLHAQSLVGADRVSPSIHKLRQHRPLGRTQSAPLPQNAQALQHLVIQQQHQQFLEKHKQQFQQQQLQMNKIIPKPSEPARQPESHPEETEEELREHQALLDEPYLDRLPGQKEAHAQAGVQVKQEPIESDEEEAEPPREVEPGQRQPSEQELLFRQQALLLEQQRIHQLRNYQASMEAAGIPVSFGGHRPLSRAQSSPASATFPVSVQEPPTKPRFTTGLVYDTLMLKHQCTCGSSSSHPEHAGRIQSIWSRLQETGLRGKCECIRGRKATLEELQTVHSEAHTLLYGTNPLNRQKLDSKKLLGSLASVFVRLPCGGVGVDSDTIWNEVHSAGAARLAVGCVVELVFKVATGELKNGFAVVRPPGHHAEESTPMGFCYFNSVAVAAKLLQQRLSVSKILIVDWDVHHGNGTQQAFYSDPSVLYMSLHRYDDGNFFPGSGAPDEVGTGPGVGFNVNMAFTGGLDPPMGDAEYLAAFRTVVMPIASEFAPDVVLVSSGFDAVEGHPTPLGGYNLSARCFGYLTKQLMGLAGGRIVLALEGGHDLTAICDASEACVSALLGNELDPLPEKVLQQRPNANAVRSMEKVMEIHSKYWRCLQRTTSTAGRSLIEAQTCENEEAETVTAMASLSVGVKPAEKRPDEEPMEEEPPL

For `O=C(/C=C/c1ccc(/C=N/OCc2ccc([N+](=O)[O-])cc2)cc1)NO`, the IC50 in assay [1] stood at 790 nM; in assay [2] it was 2040 nM; in assay [3], 760 nM; in assay [4] it was 1160 nM; in assay [5] it was 70 nM; in assay [6], 1200 nM. In addition, the figures for the IC50 in assay [7] and in assay [8] were 2670 nM and 160 nM, respectively.
